Experimental data published in US20240317721A1, “PYRAZOLYL DERIVATIVES AS INHIBITORS OF THE KRAS MUTANT PROTEIN” (NOVARTIS AG, priority 2021, published 2024).

biological target: KRasG12C (M1-K169, biotinylated on the N-terminus) (Homo sapiens (Human), UniProt P01116, G12C); assay: Covalent competition assay: scintillation proximity assay (SPA) quantifying covalent modification of KRASG12C; format: binding; settings: competition with radiolabeled covalent probe (Compound B/Compound A), 2 hours incubation, 10 nM KRasG12C
Procedure, shortened: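 Test compounds compete with a radiolabeled covalent probe for modification of N-terminally biotinylated KRasG12C(M1-K169):GDP, final 10 nM protein, 25 nM radio-ligand, 475 nM unlabelled ligand, 2 h with agitation in 20 mM Tris-HCl pH 7.5, 150 mM NaCl, 0.1 mM MgCl2, 0.01% Tween-20.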

IC50	Structure (SMILES)
8 nM	C=CC(=O)N1CC2(CC(n3nc(N4CC[C@@H](CN5CC6(CCCN6C6COC6)C5)CC4(C)C)c(-c4c(Cl)c(Cl)cc5[nH]ncc45)c3C)C2)C1 (single isomer, unassigned) [Example 272b]
48 nM	C=CC(=O)N1CC2(CC(n3nc(N4CCN(CCOC)C[C@]4(C)C(F)F)c(-c4c(Cl)c(C)cc5[nH]ncc45)c3C)C2)C1 (single isomer, unassigned) [Example 178b]
> 5000 nM	C=CC(=O)N1CC2(CC(n3nc(N4CC[C@@H](CN5C[C@H](O)C[C@@H](F)C5)CC4(C)C)c(-c4c(Cl)c(Cl)cc5[nH]ncc45)c3C)C2)C1 (single isomer, unassigned) [Example 300a, 1-(6-(4-(5,6-dichloro-1H-indazol-4-yl)-3-((R)-4-(((3R*,5R*)-3-fluoro-5-hydroxypiperidin-1-yl)methyl)-2,2-dimethylpiperidin-1-yl)-5-methyl-1H-pyrazol-1-yl)-2-azaspiro[3.3]heptan-2-yl)prop-2-en-1-one]
> 5000 nM	C=CC(=O)N1CC2(CC(n3nc(N4CCN(C[C@H]5CCCO5)CC45CCC5)c(-c4c(Cl)c(C)cc5[nH]ncc45)c3C)C2)C1 (single isomer, unassigned) [Example 153a]
> 5000 nM	C=CC(=O)N1CC2(CC(n3nc(N4CCN(CCOC(F)F)CC45CCC5)c(-c4c(Cl)c(C)cc5[nH]ncc45)c3C)C2)C1 (single isomer, unassigned) [Example 183a, 1-(6-(4-(5-chloro-6-methyl-1H-indazol-4-yl)-3-(8-(2-(difluoromethoxy)ethyl)-5,8-diazaspiro[3.5]nonan-5-yl)-5-methyl-1H-pyrazol-1-yl)-2-azaspiro[3.3]heptan-2-yl)prop-2-en-1-one]
20 nM	C=CC(=O)N1CC2(CC(n3nc(N4CCN(C(=O)C5CC5)CC4(C)C)c(-c4c(Cl)c(C)cc5[nH]ncc45)c3C)C2)C1 (single isomer, unassigned) [Example 127b, 1-(6-(4-(5-chloro-6-methyl-1H-indazol-4-yl)-3-(4-(cyclopropanecarbonyl)-2,2-dimethylpiperazin-1-yl)-5-methyl-1H-pyrazol-1-yl)-2-azaspiro[3.3]heptan-2-yl)prop-2-en-1-one]
1400 nM	C=CC(=O)N1CC2(CC(n3nc(N4CC[C@@H](CN5CCOCC5)CC4(C)C)c(-c4c(Cl)c(C)cc5[nH]nc(N)c45)c3C)C2)C1 (single isomer, unassigned) [Example 242b]
1300 nM	C=CC(=O)N1CC2(CC(n3nc(N4CCN(c5nccn5C)C[C@]4(C)CC)c(-c4c(Cl)c(C)cc5[nH]ncc45)c3C)C2)C1 (single isomer, unassigned) [Example 194b]
912 nM	C=CC(=O)N1CC2(CC(n3nc(N4CCN(CC(C)(C)O)C[C@]4(C)CC)c(-c4c(Cl)c(C)cc5[nH]ncc45)c3C)C2)C1 (single isomer, unassigned) [Example 161a]
< 5 nM	C=CC(=O)N1CC2(CC(n3nc(N4CC[C@@H](CN5CCN(C6COC6)C[C@@H]5CO)CC4(C)C)c(-c4c(Cl)c(Cl)cc5[nH]ncc45)c3C)C2)C1 (single isomer, unassigned) [Example 290b]
9 nM	C=CC(=O)N1CC2(CC(n3nc(N4CC[C@@H](CN5CCN6C(=O)OCC6C5)CC4(C)C)c(-c4c(Cl)c(Cl)cc5[nH]ncc45)c3C)C2)C1 (single isomer, unassigned) [Example 312b]
> 5000 nM	C=CC(=O)N1CC2(CC(n3nc(N4CCN(C5CC6(COC6)C5)CC45CCC5)c(-c4c(Cl)c(C)cc5[nH]ncc45)c3C)C2)C1 (single isomer, unassigned) [Example 135a, 1-(6-(3-(8-(2-oxaspiro[3.3]heptan-6-yl)-5,8-diazaspiro[3.5]nonan-5-yl)-4-(5-chloro-6-methyl-1H-indazol-4-yl)-5-methyl-1H-pyrazol-1-yl)-2-azaspiro[3.3]heptan-2-yl)prop-2-en-1-one]
10 nM	C=CC(=O)N1CC2(CC(n3nc(N4CC[C@@H](CN5CC6OCCN(C)C6C5)CC4(C)C)c(-c4c(Cl)c(Cl)cc5[nH]ncc45)c3C)C2)C1 (single isomer, unassigned) [Example 259b, 1-(6-(4-(5,6-dichloro-1H-indazol-4-yl)-3-((R)-2,2-dimethyl-4-(((4aR*,7aS*)-4-methylhexahydropyrrolo[3,4-b][1,4]oxazin-6(2H)-yl)methyl)piperidin-1-yl)-5-methyl-1H-pyrazol-1-yl)-2-azaspiro[3.3]heptan-2-yl)prop-2-en-1-one]
8 nM	C=CC(=O)N1CC2(CC(n3nc(N4CCN(C5COC5)C[C@]4(C)COC)c(-c4c(Cl)c(C)cc5[nH]ncc45)c3C)C2)C1 (single isomer, unassigned) [Example 147a]

The remaining lines, values behind:

Structure (SMILES)	IC50
C=CC(=O)N1CC2(CC(n3nc(N4CCC(N(C)C5COC5)CC45CCC5)c(-c4c(Cl)c(C)cc5[nH]nc(N)c45)c3C)C2)C1 (single isomer, unassigned) [Example 116a, 1-(6-(4-(3-amino-5-chloro-6-methyl-1H-indazol-4-yl)-5-methyl-3-(8-(methyl(oxetan-3-yl)amino)-5-azaspiro[3.5]nonan-5-yl)-1H-pyrazol-1-yl)-2-azaspiro[3.3]heptan-2-yl)prop-2-en-1-one]	205 nM
C=CC(=O)N1CC2(CC(n3nc(N4CCn5nccc5C4C)c(-c4c(Cl)c(C)cc5[nH]ncc45)c3C)C2)C1 (single isomer, unassigned) [Example 41b, 1-(6-(4-(5-chloro-6-methyl-1H-indazol-4-yl)-5-methyl-3-(4-methyl-6,7-dihydropyrazolo[1,5-a]pyrazin-5(4H)-yl)-1H-pyrazol-1-yl)-2-azaspiro[3.3]heptan-2-yl)prop-2-en-1-one]	149 nM
C=CC(=O)N1CC2(CC(n3nc(N4CCn5nccc5C4(C)C)c(-c4c(Cl)c(C)cc5[nH]ncc45)c3C)C2)C1 (single isomer, unassigned) [Example 101b, 1-(6-(4-(5-chloro-6-methyl-1H-indazol-4-yl)-3-(4,4-dimethyl-6,7-dihydropyrazolo[1,5-a]pyrazin-5(4H)-yl)-5-methyl-1H-pyrazol-1-yl)-2-azaspiro[3.3]heptan-2-yl)prop-2-en-1-one]	103 nM
C=CC(=O)N1CC2(CC(n3nc(N4CCN(C(=O)COC)CC45CCC5)c(-c4c(Cl)c(C)cc5[nH]ncc45)c3C)C2)C1 (single isomer, unassigned) [Example 123b, 1-(6-(4-(5-chloro-6-methyl-1H-indazol-4-yl)-3-(8-(2-methoxyacetyl)-5,8-diazaspiro[3.5]nonan-5-yl)-5-methyl-1H-pyrazol-1-yl)-2-azaspiro[3.3]heptan-2-yl)prop-2-en-1-one]	21 nM
C=CC(=O)N1CC2(CC(n3nc(N4CC[C@H](N(C)C(C)=O)CC4(C)C)c(-c4c(Cl)c(C)cc5[nH]ncc45)c3C)C2)C1 (single isomer, unassigned) [Example 70b]	1000 nM
C=CC(=O)N1CC2(CC(n3nc(N4CCN(C(C)=O)CC4(C)C)c(-c4cc(O)cc5ccccc45)c3C)C2)C1 [Example 77, 1-(6-(3-(4-acetyl-2,2-dimethylpiperazin-1-yl)-4-(3-hydroxynaphthalen-1-yl)-5-methyl-1H-pyrazol-1-yl)-2-azaspiro[3.3]heptan-2-yl)prop-2-en-1-one]	1200 nM
C=CC(=O)N1CC2(CC(n3nc(N4CCN(C[C@@H]5COCCO5)C[C@]4(C)CC)c(-c4c(Cl)c(C)cc5c4cnn5C)c3C)C2)C1 (single isomer, unassigned) [Example 109b]	> 5000 nM
Cc1cc2[nH]ncc2c(-c2c(N3CCN(C4COC4)CC34CCC4)nn(C3CC4(C3)CN(C(=O)/C=C/CF)C4)c2C)c1Cl (single isomer, unassigned) [Example 113b, (E)-1-(6-(4-(5-chloro-6-methyl-1H-indazol-4-yl)-5-methyl-3-(8-(oxetan-3-yl)-5,8-diazaspiro[3.5]nonan-5-yl)-1H-pyrazol-1-yl)-2-azaspiro[3.3]heptan-2-yl)-4-fluorobut-2-en-1-one]	105 nM
C=CC(=O)N1CC2(CC(n3nc(N4CCN(C[C@@H]5COCCO5)C[C@]4(C)CCOC)c(-c4c(Cl)c(C)cc5[nH]ncc45)c3C)C2)C1 (single isomer, unassigned) [Example 85a]	5000 nM
C=CC(=O)N1CC2(CC(n3nc(N4CCC(n5ccnc5)CC4(C)C)c(-c4c(Cl)c(C)cc5[nH]ncc45)c3C)C2)C1 (single isomer, unassigned) [Example 45a, 1-(6-(3-(4-(1H-imidazol-1-yl)-2,2-dimethylpiperidin-1-yl)-4-(5-chloro-6-methyl-1H-indazol-4-yl)-5-methyl-1H-pyrazol-1-yl)-2-azaspiro[3.3]heptan-2-yl)prop-2-en-1-one]	365 nM
C=CC(=O)N1CC2(CC(n3nc(N4CCN(Cc5ccccc5)CC45CCC5)c(-c4c(Cl)c(C)cc5[nH]ncc45)c3C)C2)C1 (single isomer, unassigned) [Example 100b, 1-(6-(3-(8-benzyl-5,8-diazaspiro[3.5]nonan-5-yl)-4-(5-chloro-6-methyl-1H-indazol-4-yl)-5-methyl-1H-pyrazol-1-yl)-2-azaspiro[3.3]heptan-2-yl)prop-2-en-1-one]	86 nM
C=CC(=O)N1CC2(CC(n3nc(N4CC[C@@H](CN5CC6CC(C5)N6C(C)=O)CC4(C)C)c(-c4c(Cl)c(Cl)cc5[nH]ncc45)c3C)C2)C1 (single isomer, unassigned) [Example 301a]	1900 nM
C=CC(=O)N1CC2(CC(n3nc(N4CCC(N(CCOC)CCOC)CC45CCC5)c(-c4c(Cl)c(Cl)cc5[nH]ncc45)c3C)C2)C1 (single isomer, unassigned) [Example 80b, 1-(6-(3-(8-(bis(2-methoxyethyl)amino)-5-azaspiro[3.5]nonan-5-yl)-4-(5,6-dichloro-1H-indazol-4-yl)-5-methyl-1H-pyrazol-1-yl)-2-azaspiro[3.3]heptan-2-yl)prop-2-en-1-one]	7 nM
